Measured values as given in patent publication US4542025A, “Injectable, long-acting microparticle formulation for the delivery of anti-inflammatory agents” (priority 1984, dated 1985).

Assay: In vitro release of methylprednisolone acetate into 50 wt % aqueous ethanol
Format: physicochemical
Settings: unencapsulated, 37° C., 120 cycles/min
Procedure: The in vitro release of methylprednisolone acetate from microparticles into a receiving fluid comprising 50 wt % of aqueous ethanol maintained at 37° C. was measured.
Triplicate samples of 20 mg of microparticles were weighed and each sample was placed in an 8-oz bottle containing 150 mL of 50 wt % aqueous ethanol. […] Next, the bottles were sealed with a thin sheet of Teflon and a screw cap to prevent evaporation. The bottles were then placed in an Eberbach shaker bath oscillating at 120 cycles/min and maintained at 37° C. The amount of drug released from the microparticles as a function of time was measured by determining the absorbance of the aqueous ethanol receiving fluid at 247 nm and by using the following equation based on Beer's Law.
wherein C is the concentration of methylprednisolone acetate in g/ml.

CC(=O)OCC(=O)[C@@]1(O)CC[C@H]2[C@@H]3C[C@H](C)C4=CC(=O)C=C[C@]4(C)[C@H]3[C@@H](O)C[C@@]21C
time to complete dissolution: 30 min
